In brackets after ≈: the same amount, converted by molar mass. Read-outs that look alike come from different tables or passages of the source.
Tested on: A. non-baumannii isolates (n = 87)
Test: MIC, broth microdilution (EUCAST), A. non-baumannii isolates
Type: cell-based, Acinetobacter spp. (non-baumannii)
Conditions: for MIC: read-out: MIC
From the text: The bacterial strains used in this study comprised 208 clinical isolates from the Spanish National Acinetobacter spp. 2020 Multicenter Collection, which was previously characterized in detail by our research group, including whole-genome sequencing, phylogenetics studies, clonal dynamics, and resistance mechanisms ([2], [29]). Additionally, a collection of A. baumannii ATCC 17978 transformants coding the blaOXA-23, blaOXA-24/40, blaOXA-51, blaOXA-58, blaOXA-143, and blaOXA-201 genes, previously constructed and described by our group ([30]), was used to determine the activity of enmetazobactam against strains carrying the main CHDLs of A. baumannii.
The antimicrobial susceptibility of the 208 Acinetobacter spp. isolates was assessed using the broth microdilution method, as described in the European Committee on Antimicrobial Susceptibility Testing (EUCAST) v.15 guidelines (http://www.eucast.org/clinical_breakpoints). […] MICs for enmetazobactam alone were assessed as well. […] Subsequently, MIC testing was also conducted with a collection of A. baumannii ATCC 17978 transformants expressing clinically relevant OXA-like carbapenemase genes.
The A. baumannii ATCC 19606 strain was used as the reference strain in all susceptibility experiments, in duplicate assays. Antibiotics were purchased from Sigma-Aldrich, except enmetazobactam and durlobactam, which were obtained from Advanz Pharma and MedChemExpress, respectively.

[1] = Acinetobacter, A. non-baumannii isolates (n=87), ETZ fixed 8 mg/L in combinations

C[n+]1ccn(C[C@@]2(C)[C@H](C(=O)[O-])N3C(=O)C[C@H]3S2(=O)=O)n1 [enmetazobactam]
MIC (Acinetobacter pittii, isolate NO-Ab97, Acinetobacter pittii, in combinations ETZ fixed at 8 mg/L): 2 µg/mL | MIC (Acinetobacter pittii, isolate NO-Ab105, Acinetobacter pittii, in combinations ETZ fixed at 8 mg/L): 2 µg/mL | MIC (Acinetobacter pittii, isolate NO-Ab106, Acinetobacter pittii, in combinations ETZ fixed at 8 mg/L): 2 µg/mL | MIC (Acinetobacter pittii, isolate NO-Ab107, Acinetobacter pittii, in combinations ETZ fixed at 8 mg/L): 1 µg/mL | MIC (Acinetobacter pittii, isolate NO-Ab111, Acinetobacter pittii, in combinations ETZ fixed at 8 mg/L): 2 µg/mL | MIC (Acinetobacter pittii, isolate NO-Ab113, Acinetobacter pittii, in combinations ETZ fixed at 8 mg/L): 2 µg/mL | MIC (Acinetobacter pittii, isolate NO-Ab118, Acinetobacter pittii, in combinations ETZ fixed at 8 mg/L): 2 µg/mL | MIC (Acinetobacter pittii, isolate NO-Ab135, Acinetobacter pittii, in combinations ETZ fixed at 8 mg/L): 2 µg/mL | MIC (Acinetobacter pittii, isolate NO-Ab145, Acinetobacter pittii, in combinations ETZ fixed at 8 mg/L): 2 µg/mL | MIC (Acinetobacter pittii, isolate NO-Ab151, Acinetobacter pittii, in combinations ETZ fixed at 8 mg/L): 4 µg/mL | MIC (Acinetobacter pittii, isolate NO-Ab154, Acinetobacter pittii, in combinations ETZ fixed at 8 mg/L): 2 µg/mL | MIC (Acinetobacter pittii, isolate NO-Ab157, Acinetobacter pittii, in combinations ETZ fixed at 8 mg/L): 4 µg/mL | MIC (Acinetobacter pittii, isolate NO-Ab162, Acinetobacter pittii, in combinations ETZ fixed at 8 mg/L): 4 µg/mL | MIC (Acinetobacter pittii, isolate NO-Ab164, Acinetobacter pittii, in combinations ETZ fixed at 8 mg/L): 2 µg/mL | MIC (Acinetobacter pittii, isolate NO-Ab178, Acinetobacter pittii, in combinations ETZ fixed at 8 mg/L): 2 µg/mL | MIC (Acinetobacter pittii, isolate NO-Ab197, Acinetobacter pittii, in combinations ETZ fixed at 8 mg/L): 2 µg/mL | MIC (Acinetobacter proteolyticus, isolate NO-Ab99, Acinetobacter proteolyticus, in combinations ETZ fixed at 8 mg/L): 2 µg/mL | MIC (Acinetobacter proteolyticus, isolate NO-Ab102, Acinetobacter proteolyticus, in combinations ETZ fixed at 8 mg/L): 4 µg/mL | MIC (Acinetobacter proteolyticus, isolate NO-Ab210, Acinetobacter proteolyticus, in combinations ETZ fixed at 8 mg/L): 1 µg/mL | MIC (Acinetobacter radioresistens, isolate NO-Ab175, Acinetobacter radioresistens, in combinations ETZ fixed at 8 mg/L): 1 µg/mL | MIC (Acinetobacter radioresistens, isolate NO-Ab215, Acinetobacter radioresistens, in combinations ETZ fixed at 8 mg/L): 0.5 µg/mL | MIC (Acinetobacter ursingii, isolate NO-Ab3, Acinetobacter ursingii, in combinations ETZ fixed at 8 mg/L): 0.25 µg/mL | MIC (Acinetobacter ursingii, isolate NO-Ab64, Acinetobacter ursingii, in combinations ETZ fixed at 8 mg/L): 1 µg/mL | MIC (Acinetobacter ursingii, isolate NO-Ab87, Acinetobacter ursingii, in combinations ETZ fixed at 8 mg/L): 0.5 µg/mL | MIC (Acinetobacter ursingii, isolate NO-Ab103, Acinetobacter ursingii, in combinations ETZ fixed at 8 mg/L): 0.5 µg/mL | MIC (Acinetobacter ursingii, isolate NO-Ab119, Acinetobacter ursingii, in combinations ETZ fixed at 8 mg/L): 8 µg/mL | MIC (Acinetobacter ursingii, isolate NO-Ab120, Acinetobacter ursingii, in combinations ETZ fixed at 8 mg/L): 1 µg/mL | MIC (Acinetobacter ursingii, isolate NO-Ab123, Acinetobacter ursingii, in combinations ETZ fixed at 8 mg/L): 2 µg/mL | MIC (Acinetobacter ursingii, isolate NO-Ab126, Acinetobacter ursingii, in combinations ETZ fixed at 8 mg/L): 0.5 µg/mL | MIC (Acinetobacter ursingii, isolate NO-Ab147, Acinetobacter ursingii, in combinations ETZ fixed at 8 mg/L): 4 µg/mL | MIC (Acinetobacter ursingii, isolate NO-Ab155, Acinetobacter ursingii, in combinations ETZ fixed at 8 mg/L): 4 µg/mL | MIC (Acinetobacter ursingii, isolate NO-Ab165, Acinetobacter ursingii, in combinations ETZ fixed at 8 mg/L): 2 µg/mL | MIC (Acinetobacter ursingii, isolate NO-Ab166, Acinetobacter ursingii, in combinations ETZ fixed at 8 mg/L): 0.5 µg/mL | MIC (Acinetobacter ursingii, isolate NO-Ab214, Acinetobacter ursingii, in combinations ETZ fixed at 8 mg/L): 0.5 µg/mL | MIC (Acinetobacter ursingii, isolate NO-Ab221, Acinetobacter ursingii, in combinations ETZ fixed at 8 mg/L): 1 µg/mL | MIC (Acinetobacter ursingii, isolate NO-Ab222, Acinetobacter ursingii, in combinations ETZ fixed at 8 mg/L): 1 µg/mL | MIC (Acinetobacter, MBC set, isolate NO-Ab84, A. bereziniae): 1 µg/mL (≈ 3.18 µM) | MIC (Acinetobacter, MBC set, isolate NO-Ab88, A. dijkshoorniae): 2 µg/mL (≈ 6.36 µM) | MIC (Acinetobacter, isolate NO-Ab146, Acinetobacter iwoffii, in combinations ETZ fixed at 8 mg/L): 4 µg/mL | MIC (Acinetobacter, isolate NO-Ab159, Acinetobacter iwoffii, in combinations ETZ fixed at 8 mg/L): 2 µg/mL | MIC50 [1]: 2 µg/mL | MIC90 [1]: 4 µg/mL | MIC distribution 0.25 (cumulative share of A. non-baumannii isolates (n=87) at MIC 0.25 mg/L, ETZ fixed 8 mg/L in combinations): 1.1 | MIC distribution 0.5 (cumulative share of A. non-baumannii isolates (n=87) at MIC 0.5 mg/L, ETZ fixed 8 mg/L in combinations): 9.2 | MIC distribution 1 (cumulative share of A. non-baumannii isolates (n=87) at MIC 1 mg/L, ETZ fixed 8 mg/L in combinations): 29.9 | MIC distribution 2 (cumulative share of A. non-baumannii isolates (n=87) at MIC 2 mg/L, ETZ fixed 8 mg/L in combinations): 75.9 | MIC distribution 4 (cumulative share of A. non-baumannii isolates (n=87) at MIC 4 mg/L, ETZ fixed 8 mg/L in combinations): 96.6 | MIC distribution 8 (cumulative share of A. non-baumannii isolates (n=87) at MIC 8 mg/L, ETZ fixed 8 mg/L in combinations): 98.9 | MIC distribution 16 (cumulative share of A. non-baumannii isolates (n=87) at MIC 16 mg/L, ETZ fixed 8 mg/L in combinations): 100 | MIC distribution 32 (cumulative share of A. non-baumannii isolates (n=87) at MIC 32 mg/L, ETZ fixed 8 mg/L in combinations): 100 | MIC distribution ≤0.06 (cumulative share of A. non-baumannii isolates (n=87) at MIC ≤0.06 mg/L, ETZ fixed 8 mg/L in combinations): 0

— paper PMC12888861, “Antibacterial activity of enmetazobactam against Acinetobacter spp.: a molecular dissection of mechanism of action and resistance determinants” (Antimicrobial Agents and Chemotherapy, 2025)
